Laboratory results as given in patent US4683291A, “Platelet binding inhibitors” (Scripps Clinic and Research Foundation, priority 1985, dated 1987).
Non-standard residues stand in square brackets, D forms with d. Residues, ends and D or L forms follow the SMILES beside them. No end group written: not given here.

Target: T1, platelet receptor, the GPIIb/IIIa complex (Homo sapiens, UniProt P05106+P08514)
T1 construct: Platelets were isolated from normal platelet-rich plasma and washed by the albumin density gradient technique; endogenous in cells; host or cells: washed platelets from normal platelet-rich plasma, thrombin-stimulated
Experiment: Inhibition of 125I-fibrinogen binding to thrombin-stimulated washed platelets
Details: fibrinogen-platelet binding; read-out: IC50
Experimental: Peptides were stored in the lyophilized state and dissolved in distilled water immediately before use. One-tenth volume of 10x modified Tyrode buffer was added before mixing with the platelet suspension. Platelets were isolated from normal platelet-rich plasma and washed by the albumin density gradient technique. Fibrinogen was purified following precipitation with glycine or polyethylene glycol 1000, and radiolabeled with ^125 I using Iodogen (Pierce). […] In each experimental mixture, platelets in modified Tyrode buffer were stimulated with human alpha-thrombin at 22°-25° C. for 10 minutes (3.125×10^11 platelets/L and 0.25 NIHU/ml of thrombin). Hirudin (Sigma) was then added at a 25-fold excess (V/V) for 5 minutes before the addition of ^125 I-fibrinogen and the peptide was then tested. After these additions, the final platelet count in the mixture was 1×10^11 /L, and fibrinogen was 0.176 micromolar. Separation of bound from free ligand was achieved by centrifuging 50 microliters of the mixture through 200 microliters of 20% sucrose at 12,000 g for 4 minutes. The platelet pellet was separated from the rest of the mixture, and the platelet-bound radioactivity was then determined. Non-specific binding was measured in mixtures containing a 75-fold excess of unlabeled fibrinogen. […] Each peptide was tested at six different concentrations, and the IC50 was derived from a plot of residual fibrinogen binding versus log of peptide concentration.
“KRKRKRKRRGDV [Lys--Arg--Lys--Arg--Lys--Arg--Lys--Arg--Arg--Gly--Asp--Val]” gave an IC50 of 0.4 µM.

Same assay, conditions: published peptides; read-out: IC50
HHLGGAKQAGDV [reference compound] showed an IC50 of 48 to 83 µM.

Same assay, conditions: read-out: Typical IC50 (micromolar) IC50
CC(C)[C@H](NC(=O)[C@H](CC(=O)O)NC(=O)CNC(=O)[C@H](CCCNC(=N)N)NC(=O)[C@H](CCC(N)=O)NC(=O)[C@H](CCCCN)NC(=O)[C@H](CCCNC(=N)N)NC(=O)[C@H](CCCCN)NC(=O)[C@H](CCCNC(=N)N)NC(=O)[C@@H](C)NC(=O)[C@H](Cc1c[nH]cn1)NC(=O)[C@@H](N)Cc1c[nH]cn1)C(=O)O [His--His--D-Ala--Arg--Lys--Arg--Lys--Gln--Arg--Gly--Asp--Val] (H-HH[dA]RKRKQRGDV-OH) showed an IC50 of 2.2 µM.
In the case of CC(C)[C@H](NC(=O)[C@H](CC(=O)O)NC(=O)CNC(=O)[C@H](CCCNC(=N)N)NC(=O)[C@H](CCC(N)=O)NC(=O)[C@H](CCCCN)NC(=O)[C@H](CCCNC(=N)N)NC(=O)CNC(=O)CNC(=O)[C@@H](C)NC(=O)[C@H](Cc1c[nH]cn1)NC(=O)[C@@H](N)Cc1c[nH]cn1)C(=O)O [His--His--D-Ala--Gly--Gly--Arg--Lys--Gln--Arg--Gly--Asp--Val] (H-HH[dA]GGRKQRGDV-OH), the IC50 is reported as 2.8 µM.
Compound “HHKKKKKKRGDV [His--His--Lys--Lys--Lys--Lys--Lys--Lys--Arg--Gly--Asp--Val]” has an IC50 of 1.6 µM.
In the case of “HHKRKRKQRGDS [His--His--Lys--Arg--Lys--Arg--Lys--Gln--Arg--Gly--Asp--Ser]”, the IC50 is reported as 6.2 µM.
In the case of “HHKRKRKQRGDV [His--His--Lys--Arg--Lys--Arg--Lys--Gln--Arg--Gly--Asp--Val]”, the IC50 is reported as 3.3 µM.
“HHKRKRKRRGDS [His--His--Lys--Arg--Lys--Arg--Lys--Arg--Arg--Gly--Asp--Ser]” gave an IC50 of 3.1 µM.
Work on “HHLGGAKQRGDV [His--His--Leu--Gly--Gly--Ala--Lys--Gln--Arg--Gly--Asp--Val]” yielded an IC50 of 14.5 µM.
For “HHLGGKKQRGDV [His--His--Leu--Gly--Gly--Lys--Lys--Gln--Arg--Gly--Asp--Val]”, the IC50 was 13.2 µM.
Work on “HHLGGRKQRGDV [His--His--Leu--Gly--Gly--Arg--Lys--Gln--Arg--Gly--Asp--Val]” yielded an IC50 of 6.3 µM.
In the case of “HHLGRRKQRGDV [His--His--Leu--Gly--Arg--Arg--Lys--Gln--Arg--Gly--Asp--Val]”, the IC50 is reported as 5.4 µM.
“HHLRGKKQRGDV [His--His--Leu--Arg--Gly--Lys--Lys--Gln--Arg--Gly--Asp--Val]” gave an IC50 of 11.2 µM.
In the case of “HHLRGRKQRGDV [His--His--Leu--Arg-- Gly--Arg--Lys--Gln--Arg--Gly--Asp--Val]”, the IC50 is reported as 6.2 µM.
In the case of “HHLRKRKQRGDV [His--His--Leu--Arg--Lys--Arg--Lys--Gln--Arg--Gly--Asp--Val]”, the IC50 is reported as 4.4 µM.
Compound “HHRRRRRRRGDV [His--His--Arg--Arg--Arg--Arg--Arg--Arg--Arg--Gly--Asp--Val]” has an IC50 of 1.3 µM.
For “KKKKKKKKRGDV [Lys--Lys--Lys--Lys--Lys--Lys--Lys--Lys--Arg--Gly--Asp--Val]”, the IC50 was 4.1 µM.
“RRRRRRRRRGDV [Arg--Arg--Arg--Arg--Arg--Arg--Arg--Arg--Arg--Gly--Asp--Val]” showed an IC50 of 0.2 µM.

Target: T1, platelet receptor, the GPIIb/IIIa complex
Experiment: not given
Details: increasing fibrinogen concentrations; earlier findings; cited from earlier work
For “Gly-Pro-Arg-Pro (GPRP; printed: Gly-Pro-Arg-Pro)”, the “inhibitory effect on increasing the fibrinogen concentration” value is listed as “increase with increasing fibrinogen concentrations”.
